Results on 21 compounds are retold here after patent US20260274833A1 (NiKang Therapeutics, Inc., priority 2022, published 2026).

The target in the experiment is T1, CDK2 (Homo sapiens, UniProt P24941).
T1 construct: endogenous in cells; host or cells: OVCAR3 cells
Briefly: Phospho-RB measurement in OVCAR3 cells (HTRF phospho-RB cellular kit). As to conditions: inhibition of RB phosphorylation at S807/811 (HTRF, TR-FRET ratio 665/620), 24 h compound treatment, 0.3 to 10,000 nM. Type of experiment: cell-based. The gist of the method:
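IC50 came from a four-parameter logistic fit of the DMSO-normalized TR-FRET ratio (665/620 nm). That ratio reflects RB phosphorylation at S807/811, read with an HTRF antibody pair 4 h after adding lysate at room temperature.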
On to `CN1CC2CCC(C1)N2c1nc(-c2cccc(NS(=O)(=O)N3CCc4ccc(C(F)(F)F)cc43)c2F)c(-c2ccnc(NC3CC4(C3)CS(=O)(=O)C4)n2)s1` [Example 44, N-(3-(5-(2-((2,2-dioxido-2-thiaspiro-[3.3]heptan-6-yl)amino)pyrimidin-4-yl)-2-(3-methyl-3,8-diazabicyclo[3.2.1]-octan-8-yl)thiazol-4-yl)-2-fluorophenyl)-6-(trifluoromethyl) indoline-1-sulfonamide], for which the IC50 is 56 nM. As to `CC(C)(C)c1nc(-c2cccc(NS(=O)(=O)N3CCOc4ccccc4C3)c2F)c(-c2ccnc(NC3CCN(S(C)(=O)=O)CC3)n2)s1` [Example 91, N-(3-(2-(tert-butyl)-5-(2-((1-(methylsulfonyl)-piperidin-4-yl)amino)-pyrimidin-4-yl)thiazol-4-yl)-2-fluorophenyl)-2,3-dihydrobenzo [f][1,4]-oxazepine-4 (5H)-sulfonamide], the IC50 stood at 117 nM.

For `O=S1(=O)CC2(CC(Nc3nccc(-c4sc(C56CC(C5)C6)nc4-c4cccc(NS(=O)(=O)N5CCc6ccc(OC(F)(F)F)cc65)c4F)n3)C2)C1` [Example 36, N-(3-(2-(bicyclo [1.1.1]pentan-1-yl)-5-(2-((2,2-dioxido-2-thiaspiro [3.3]heptan-6-yl)amino)-pyrimidin-4-yl)thiazol-4-yl)-2-fluorophenyl)-6-(trifluoromethoxy) indoline-1-sulfonamide], the IC50 stood at 195 nM. For `CC1(c2nc(-c3cccc(NS(=O)(=O)N4CCc5ccc(C#N)cc54)c3F)c(-c3ccnc(Nc4ccc(N5CCNCC5)cc4)n3)s2)CCOCC1` [Example 236, 6-cyano-N-(2-fluoro-3-(2-(4-methyltetrahydro-2H-pyran-4-yl)-5-(2-((4-(piperazin-1-yl)-phenyl)amino)-pyrimidin-4-yl)thiazol-4-yl)-phenyl)indoline-1-sulfonamide] the value was 477 nM; for `CS(=O)(=O)CC12CC(Nc3nccc(-c4sc(C56CC(C5)C6)nc4-c4cccc(NS(=O)(=O)N5CCc6ccc(Cl)cc65)c4F)n3)(C1)C2` [Example 269, N-(3-(2-(bicyclo [1.1.1]pentan-1-yl)-5-(2-((3-((methylsulfonyl)methyl)bicyclo-[1.1.1]pentan-1-yl)amino)pyrimidin-4-yl)thiazol-4-yl)-2-fluorophenyl)-6-chloroindoline-1-sulfonamide], 70.6 nM.

On to `CN1CCN(S(=O)(=O)N2CCC(Nc3nccc(-c4sc(C(C)(C)C)nc4-c4cccc(NS(=O)(=O)N(C)C5CC5)c4F)n3)CC2)CC1` [Example 112, N-(3-(2-(tert-butyl)-5-(2-((1-((4-methylpiperazin-1-yl)sulfonyl)piperidin-4-yl)amino)pyrimidin-4-yl)thiazol-4-yl)-2-fluorophenyl)-(N-methyl-N-cyclopropylamine)-sulfonamide], for which the IC50 amounted to 1210 nM. Regarding `CN(C)c1ccc2c(c1)N(S(=O)(=O)Nc1cccc(-c3nc(C45CC(C4)C5)sc3-c3ccnc(NC4CC5(C4)CS(=O)(=O)C5)n3)c1F)CC2` [Example 22, N-(3-(2-(bicyclo [1.1.1]pentan-1-yl)-5-(2-((2,2-dioxido-2-thiaspiro [3.3]heptan-6-yl)amino)-pyrimidin-4-yl)thiazol-4-yl)-2-fluorophenyl)-6-(dimethylamino)-indoline-1-sulfonamide], the half-maximal inhibitory concentration (IC50) is 477 nM.

In the case of `CC(C)(C)c1nc(-c2cccc(NS(=O)(=O)N3CCCCc4ccccc43)c2F)c(-c2ccnc(NC3CCN(S(C)(=O)=O)CC3)n2)s1` [Example 82, N-(3-(2-(tert-butyl)-5-(2-((1-(methylsulfonyl)piperidin-4-yl)amino)-pyrimidin-4-yl)thiazol-4-yl)-2-fluorophenyl)-2,3,4,5-tetrahydro-1H-benzo[b]azepine-1-sulfonamide], the IC50 worked out at 850 nM. Next, `CC(C)(C)c1nc(-c2cccc(NS(=O)(=O)N3CCc4c(CO)cccc43)c2F)c(-c2ccnc(NC3CC4(C3)CS(=O)(=O)C4)n2)s1` [Example 216, N-(3-(2-(tert-butyl)-5-(2-((2,2-dioxido-2-thiaspiro[3.3]heptan-6-yl)amino)-pyrimidin-4-yl)thiazol-4-yl)-2-fluoro-phenyl)-4-(hydroxymethyl) indoline-1-sulfonamide]: 65.4 nM; `CN1CC2CCC(C1)N2c1nc(-c2cccc(NS(=O)(=O)N3Cc4ccccc4C3)c2F)c(-c2ccnc(NC3CC4(C3)CS(=O)(=O)C4)n2)s1` [Example 15, N-(3-(5-(2-((2,2-dioxido-2-thiaspiro-[3.3]-heptan-6-yl)amino)pyrimidin-4-yl)-2-(3-methyl-3,8-diazabicyclo[3.2.1]-octan-8-yl)thiazol-4-yl)-2-fluorophenyl)-isoindoline-2-sulfonamide]: 72.5 nM. Next, `CN(C)C(=O)c1cccc2c1CN(S(=O)(=O)Nc1cccc(-c3nc(C(C)(C)C)sc3-c3ccnc(NC4CCN(S(C)(=O)=O)CC4)n3)c1F)C2` [Example 163, 2-(N-(3-(2-(tert-butyl)-5-(2-((1-(methyl-sulfonyl)piperidin-4-yl)amino)pyrimidin-4-yl)thiazol-4-yl)-2-fluorophenyl)-sulfamoyl)-N, N-dimethyliso-indoline-4-carboxamide]: 2430 nM; `CC1(c2nc(-c3cccc(NS(=O)(=O)N4CCc5ccc(C#N)cc54)c3F)c(-c3ccnc(NC4CC5(C4)CS(=O)(=O)C5)n3)s2)CCOCC1` [Example 5, 6-cyano-N-(3-(5-(2-((2,2-dioxido-2-thiaspiro-[3.3]heptan-6-yl)amino)-pyrimidin-4-yl)-2-(4-methyltetrahydro-2H-pyran-4-yl)thiazol-4-yl)-2-fluorophenyl) indoline-1-sulfonamide]: 32.7 nM. For `O=S1(=O)CC2(CC(Nc3nccc(-c4sc(C56CC(C5)C6)nc4-c4cccc(NS(=O)(=O)N5CCc6ccc(F)cc65)c4F)n3)C2)C1` [Example 29, N-(3-(2-(bicyclo [1.1.1]pentan-1-yl)-5-(2-((2,2-dioxido-2-thiaspiro[3.3]heptan-6-yl)amino)-pyrimidin-4-yl)thiazol-4-yl)-2-fluorophenyl)-6-fluoroindoline-1-sulfonamide] the value was 70.8 nM; for `CC(C)(C)c1nc(-c2cccc(NS(=O)(=O)N3CCc4c3cccc4C(C)(C)O)c2F)c(-c2ccnc(NC3CC4(C3)CS(=O)(=O)C4)n2)s1` [Example 230, N-(3-(2-(tert-butyl)-5-(2-((2,2-dioxido-2-thiaspiro[3.3]heptan-6-yl)amino)-pyrimidin-4-yl)thiazol-4-yl)~2-fluoro-phenyl)-4-(2-hydroxypropan-2-yl)-indoline-1-sulfonamide], 354 nM.

For `CNC(=O)c1ccc2c(c1)N(S(=O)(=O)Nc1cccc(-c3nc(C(C)(C)C)sc3-c3ccnc(NC4CC5(C4)CS(=O)(=O)C5)n3)c1F)CC2` [Example 203, 1-(N-(3-(2-(tert-butyl)-5-(2-((2,2-dioxido-2-thiaspiro[3.3]heptan-6-yl)amino)pyrimidin-4-yl)thiazol-4-yl)-2-fluorophenyl)sulfamoyl)-N-methyl-indoline-6-carboxamide], the IC50 was 931 nM.

For `CC(C)(C)c1nc(-c2cccc(NS(=O)(=O)N3Cc4cccc(OCC#N)c4C3)c2F)c(-c2ccnc(NC3CCN(S(C)(=O)=O)CC3)n2)s1` [Example 247, N-(3-(2-(tert-butyl)-5-(2-((1-(methylsulfonyl)-piperidin-4-yl)amino)-pyrimidin-4-yl)thiazol-4-yl)-2-fluoro-phenyl)-4-(cyanomethoxy)-isoindoline-2-sulfonamide], the IC50 amounted to 117 nM. For `CC(C)(C)c1nc(-c2cccc(NS(=O)(=O)N3CCc4ccc(-c5ccccc5)cc43)c2F)c(-c2ccnc(NC3CCN(S(C)(=O)=O)CC3)n2)s1` [Example 218, N-(3-(2-(tert-butyl)-5-(2-((1-(methylsulfonyl)-piperidin-4-yl)amino)-pyrimidin-4-yl)thiazol-4-yl)-2-fluoro-phenyl)-6-phenylindoline-1-sulfonamide] the value was 1300 nM; for `O=S1(=O)CC2(CC(Nc3nccc(-c4sc(C5(C(F)(F)F)CC5)nc4-c4cccc(NS(=O)(=O)N5CCc6ccc(C(F)(F)F)cc65)c4F)n3)C2)C1` [Example 286, N-(3-(5-(2-((2,2-dioxido-2-thiaspiro-[3.3]heptan-6-yl)amino)pyrimidin-4-yl)-2-(1-(trifluoromethyl)cyclopropyl)-thiazol-4-yl)-2-fluorophenyl)-6-(trifluoromethyl) indoline-1-sulfonamide], 574 nM; for `CC(C)(C)c1nc(-c2cccc(NS(=O)(=O)N3Cc4cccc(OC(F)F)c4C3)c2F)c(-c2ccnc(NC3CC4(C3)CS(=O)(=O)C4)n2)s1` [Example 205, N-(3-(2-(tert-butyl)-5-(2-((2,2-dioxido-2-thiaspiro[3.3]heptan-6-yl)amino)-pyrimidin-4-yl)thiazol-4-yl)-2-fluorophenyl)-4-(difluoromethoxy)-isoindoline-2-sulfonamide], 40.4 nM. For `CC(C)(C)c1nc(-c2cccc(NS(=O)(=O)N3CCn4c(nnc4C(F)(F)F)C3)c2F)c(-c2ccnc(NC3CCN(S(C)(=O)=O)CC3)n2)s1` [Example 94, N-(3-(2-(tert-butyl)-5-(2-((1-(methylsulfonyl)-piperidin-4-yl)amino)-pyrimidin-4-yl)thiazol-4-yl)-2-fluoro-phenyl)-3-(trifluoromethyl)-5,6-dihydro-[1,2,4]triazolo [4,3-a]pyrazine-7(8H)-sulfonamide] the value was 5940 nM; for `CC(C)(C)c1nc(-c2cccc(NS(=O)(=O)N3Cc4cccc(OCCN)c4C3)c2F)c(-c2ccnc(NC3CCN(S(C)(=O)=O)CC3)n2)s1` [Example 244, 4-(2-aminoethoxy)-N-(3-(2-(tert-butyl)-5-(2-((1-(methylsulfonyl)piperidin-4-yl)amino)-pyrimidin-4-yl)thiazol-4-yl)-2-fluorophenyl)-isoindoline-2-sulfonamide], 1450 nM.
